Reference: ChEMBL document CHEMBL4507303, “Data for DCP probe TP-004” (2021)

Assays:
[1] = molecular target: Mitogen-activated protein kinase kinase kinase kinase 1 (Homo sapiens) (UniProt Q92918); details: Compound concentration 1000.0 nM
[2] = molecular target: Phosphatidylinositol 4-phosphate 5-kinase type-1 gamma (Homo sapiens) (UniProt O60331); details: Compound concentration 1000.0 nM
[3] = molecular target: Sodium-dependent serotonin transporter (Homo sapiens) (UniProt P31645); details: Compound concentration 10.0 uM
[4] = molecular target: Tyrosine-protein kinase Fyn (Homo sapiens) (UniProt P06241); details: Compound concentration 1000.0 nM
[5] = molecular target: Mitogen-activated protein kinase kinase kinase kinase 2 (Homo sapiens) (UniProt Q12851); details: Compound concentration 1000.0 nM
[6] = molecular target: MAP/microtubule affinity-regulating kinase 3 (Homo sapiens) (UniProt P27448); details: Compound concentration 1000.0 nM
[7] = molecular target: cGMP-dependent protein kinase 2 (Homo sapiens) (UniProt Q13237); details: Compound concentration 1000.0 nM
[8] = molecular target: Alpha-2C adrenergic receptor (Homo sapiens) (UniProt P18825); details: Compound concentration 10.0 uM
[9] = test system: Phosphatidylinositol 4,5-bisphosphate 3-kinase catalytic subunit alpha isoform (Homo sapiens), P42336 [H1047L]; details: Compound concentration 1000.0 nM
[10] = molecular target: STE20/SPS1-related proline-alanine-rich protein kinase (Homo sapiens) (UniProt Q9UEW8); details: Compound concentration 1000.0 nM
[11] = molecular target: Alpha-1A adrenergic receptor (Homo sapiens) (UniProt P35348); details: Compound concentration 10.0 uM
[12] = molecular target: Serine/threonine-protein kinase NIM1 (Homo sapiens) (UniProt Q8IY84); details: Compound concentration 1000.0 nM
[13] = molecular target: Serine/threonine-protein kinase MARK2 (Homo sapiens) (UniProt Q7KZI7); details: Compound concentration 1000.0 nM
[14] = molecular target: Death-associated protein kinase 3 (Homo sapiens) (UniProt O43293); details: Compound concentration 1000.0 nM
[15] = molecular target: Serine/threonine-protein kinase 25 (Homo sapiens) (UniProt O00506); details: Compound concentration 1000.0 nM
[16] = molecular target: D(1A) dopamine receptor (Homo sapiens) (UniProt P21728); details: Compound concentration 10.0 uM
[17] = molecular target: Cyclin-dependent kinase 3 (Homo sapiens) (UniProt Q00526); details: Compound concentration 1000.0 nM
[18] = molecular target: Mitogen-activated protein kinase 9 (Homo sapiens) (UniProt P45984); details: Compound concentration 1000.0 nM
[19] = molecular target: Tyrosine-protein kinase Fes/Fps (Homo sapiens) (UniProt P07332); details: Compound concentration 1000.0 nM
[20] = molecular target: Phosphatidylinositol 5-phosphate 4-kinase type-2 beta (Homo sapiens) (UniProt P78356); details: Compound concentration 1000.0 nM
[21] = molecular target: Cyclin-dependent kinase 15 (Homo sapiens) (UniProt Q96Q40); details: Compound concentration 1000.0 nM
[22] = molecular target: Death-associated protein kinase 1 (Homo sapiens) (UniProt P53355); details: Compound concentration 1000.0 nM
[23] = molecular target: Wee1-like protein kinase (Homo sapiens) (UniProt P30291); details: Compound concentration 1000.0 nM
[24] = molecular target: Serine/threonine-protein kinase 4 (Homo sapiens) (UniProt Q13043); details: Compound concentration 1000.0 nM
[25] = molecular target: Interferon-induced, double-stranded RNA-activated protein kinase (Homo sapiens) (UniProt P19525); details: Compound concentration 1000.0 nM
[26] = molecular target: Mitogen-activated protein kinase 3 (Homo sapiens) (UniProt P27361); details: Compound concentration 1000.0 nM
[27] = molecular target: Serine/threonine-protein kinase PLK4 (Homo sapiens) (UniProt O00444); details: Compound concentration 1000.0 nM
[28] = molecular target: Serine/threonine-protein kinase 32C (Homo sapiens) (UniProt Q86UX6); details: Compound concentration 1000.0 nM
[29] = molecular target: Mitogen-activated protein kinase 11 (Homo sapiens) (UniProt Q15759); details: Compound concentration 1000.0 nM
[30] = molecular target: High affinity nerve growth factor receptor (Homo sapiens) (UniProt P04629); details: Compound concentration 1000.0 nM
[31] = molecular target: Tyrosine-protein kinase ITK/TSK (Homo sapiens) (UniProt Q08881); details: Compound concentration 1000.0 nM
[32] = molecular target: Phosphatidylinositol 4-phosphate 5-kinase type-1 alpha (Homo sapiens) (UniProt Q99755); details: Compound concentration 1000.0 nM
[33] = molecular target: Mast/stem cell growth factor receptor Kit (Homo sapiens) (UniProt P10721); details: Compound concentration 1000.0 nM
[34] = molecular target: Focal adhesion kinase 1 (Homo sapiens) (UniProt Q05397); details: Compound concentration 1000.0 nM
[35] = molecular target: Serine/threonine-protein kinase STK11 (Homo sapiens) (UniProt Q15831); details: Compound concentration 1000.0 nM
[36] = molecular target: Serine/threonine-protein kinase ULK1 (Homo sapiens) (UniProt O75385); details: Compound concentration 1000.0 nM
[37] = molecular target: Serine/threonine-protein kinase B-raf (Homo sapiens) (UniProt P15056); details: Compound concentration 1000.0 nM
[38] = molecular target: Serine/threonine-protein kinase VRK2 (Homo sapiens) (UniProt Q86Y07); details: Compound concentration 1000.0 nM
[39] = molecular target: Alpha-2A adrenergic receptor (Homo sapiens) (UniProt P08913); details: Compound concentration 10.0 uM
[40] = molecular target: Calcium-dependent protein kinase 1 (Plasmodium falciparum) (UniProt P62344); details: Compound concentration 1000.0 nM
[41] = molecular target: STE20-like serine/threonine-protein kinase (Homo sapiens) (UniProt Q9H2G2); details: Compound concentration 1000.0 nM
[42] = test system: Epidermal growth factor receptor (Homo sapiens), P00533 [L858R,T790M]; details: Compound concentration 1000.0 nM
[43] = molecular target: Serine/threonine-protein kinase PAK 3 (Homo sapiens) (UniProt O75914); details: Compound concentration 1000.0 nM
[44] = molecular target: Serine/threonine-protein kinase WNK2 (Homo sapiens) (UniProt Q9Y3S1); details: Compound concentration 1000.0 nM
[45] = molecular target: Ribosomal protein S6 kinase beta-1 (Homo sapiens) (UniProt P23443); details: Compound concentration 1000.0 nM

Cyclin-dependent kinase 15 (Homo sapiens), sequence (Q96Q40 whole entry): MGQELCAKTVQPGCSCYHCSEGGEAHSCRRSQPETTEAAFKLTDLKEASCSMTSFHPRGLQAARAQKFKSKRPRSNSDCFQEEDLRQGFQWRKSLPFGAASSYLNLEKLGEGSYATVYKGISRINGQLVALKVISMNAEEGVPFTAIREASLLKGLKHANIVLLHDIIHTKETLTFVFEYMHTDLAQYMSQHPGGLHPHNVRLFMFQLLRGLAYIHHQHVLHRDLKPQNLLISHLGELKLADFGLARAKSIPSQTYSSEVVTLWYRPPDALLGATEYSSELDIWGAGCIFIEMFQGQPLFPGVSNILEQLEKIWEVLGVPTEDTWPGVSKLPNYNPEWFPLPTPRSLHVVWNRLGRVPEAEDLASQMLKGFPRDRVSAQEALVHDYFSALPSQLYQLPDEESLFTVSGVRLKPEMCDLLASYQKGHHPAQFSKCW
Phosphatidylinositol 4-phosphate 5-kinase type-1 gamma (Homo sapiens), sequence (O60331 whole entry): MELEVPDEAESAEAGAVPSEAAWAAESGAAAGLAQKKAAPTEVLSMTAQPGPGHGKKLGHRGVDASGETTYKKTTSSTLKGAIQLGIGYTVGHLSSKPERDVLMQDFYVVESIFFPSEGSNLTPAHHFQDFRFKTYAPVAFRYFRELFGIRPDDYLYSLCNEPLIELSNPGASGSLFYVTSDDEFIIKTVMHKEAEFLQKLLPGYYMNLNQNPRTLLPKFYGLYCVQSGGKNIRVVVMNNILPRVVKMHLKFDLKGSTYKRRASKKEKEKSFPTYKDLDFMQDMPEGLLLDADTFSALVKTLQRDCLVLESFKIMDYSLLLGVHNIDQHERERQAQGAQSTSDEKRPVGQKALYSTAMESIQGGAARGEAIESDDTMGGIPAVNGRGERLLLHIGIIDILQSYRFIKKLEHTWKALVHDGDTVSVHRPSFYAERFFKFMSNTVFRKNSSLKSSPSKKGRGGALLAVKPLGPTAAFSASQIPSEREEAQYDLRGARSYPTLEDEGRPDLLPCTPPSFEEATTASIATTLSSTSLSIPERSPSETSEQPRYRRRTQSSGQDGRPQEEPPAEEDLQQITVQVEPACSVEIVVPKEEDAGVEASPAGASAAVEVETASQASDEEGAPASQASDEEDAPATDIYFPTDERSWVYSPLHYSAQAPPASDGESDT
Death-associated protein kinase 3 (Homo sapiens), sequence (O43293 whole entry, looked up): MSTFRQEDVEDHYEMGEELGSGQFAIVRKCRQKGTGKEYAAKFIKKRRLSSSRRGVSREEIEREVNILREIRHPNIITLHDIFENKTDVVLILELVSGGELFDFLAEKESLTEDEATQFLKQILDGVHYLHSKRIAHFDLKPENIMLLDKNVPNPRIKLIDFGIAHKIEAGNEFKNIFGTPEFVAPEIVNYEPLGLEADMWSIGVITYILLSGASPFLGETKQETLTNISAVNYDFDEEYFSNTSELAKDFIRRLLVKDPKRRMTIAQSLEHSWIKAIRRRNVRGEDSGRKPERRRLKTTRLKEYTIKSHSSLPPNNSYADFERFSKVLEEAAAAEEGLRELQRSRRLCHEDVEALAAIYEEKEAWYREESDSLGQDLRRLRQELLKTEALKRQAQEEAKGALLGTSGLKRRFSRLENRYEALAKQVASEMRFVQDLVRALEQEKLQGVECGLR
Alpha-2A adrenergic receptor (Homo sapiens), sequence (P08913 whole entry): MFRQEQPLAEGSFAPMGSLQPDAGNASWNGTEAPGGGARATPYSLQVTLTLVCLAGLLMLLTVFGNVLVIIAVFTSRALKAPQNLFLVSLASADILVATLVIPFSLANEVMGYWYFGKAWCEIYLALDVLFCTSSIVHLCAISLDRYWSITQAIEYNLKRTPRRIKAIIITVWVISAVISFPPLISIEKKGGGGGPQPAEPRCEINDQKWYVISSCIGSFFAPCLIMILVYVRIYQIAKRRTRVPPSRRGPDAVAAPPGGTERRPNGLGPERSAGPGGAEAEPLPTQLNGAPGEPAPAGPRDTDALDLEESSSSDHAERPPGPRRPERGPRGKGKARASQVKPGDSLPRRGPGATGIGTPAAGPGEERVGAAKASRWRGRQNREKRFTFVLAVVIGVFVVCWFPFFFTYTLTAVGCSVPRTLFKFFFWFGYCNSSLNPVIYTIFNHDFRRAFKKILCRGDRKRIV
Focal adhesion kinase 1 (Homo sapiens), sequence (Q05397 2-1052 limits assumed): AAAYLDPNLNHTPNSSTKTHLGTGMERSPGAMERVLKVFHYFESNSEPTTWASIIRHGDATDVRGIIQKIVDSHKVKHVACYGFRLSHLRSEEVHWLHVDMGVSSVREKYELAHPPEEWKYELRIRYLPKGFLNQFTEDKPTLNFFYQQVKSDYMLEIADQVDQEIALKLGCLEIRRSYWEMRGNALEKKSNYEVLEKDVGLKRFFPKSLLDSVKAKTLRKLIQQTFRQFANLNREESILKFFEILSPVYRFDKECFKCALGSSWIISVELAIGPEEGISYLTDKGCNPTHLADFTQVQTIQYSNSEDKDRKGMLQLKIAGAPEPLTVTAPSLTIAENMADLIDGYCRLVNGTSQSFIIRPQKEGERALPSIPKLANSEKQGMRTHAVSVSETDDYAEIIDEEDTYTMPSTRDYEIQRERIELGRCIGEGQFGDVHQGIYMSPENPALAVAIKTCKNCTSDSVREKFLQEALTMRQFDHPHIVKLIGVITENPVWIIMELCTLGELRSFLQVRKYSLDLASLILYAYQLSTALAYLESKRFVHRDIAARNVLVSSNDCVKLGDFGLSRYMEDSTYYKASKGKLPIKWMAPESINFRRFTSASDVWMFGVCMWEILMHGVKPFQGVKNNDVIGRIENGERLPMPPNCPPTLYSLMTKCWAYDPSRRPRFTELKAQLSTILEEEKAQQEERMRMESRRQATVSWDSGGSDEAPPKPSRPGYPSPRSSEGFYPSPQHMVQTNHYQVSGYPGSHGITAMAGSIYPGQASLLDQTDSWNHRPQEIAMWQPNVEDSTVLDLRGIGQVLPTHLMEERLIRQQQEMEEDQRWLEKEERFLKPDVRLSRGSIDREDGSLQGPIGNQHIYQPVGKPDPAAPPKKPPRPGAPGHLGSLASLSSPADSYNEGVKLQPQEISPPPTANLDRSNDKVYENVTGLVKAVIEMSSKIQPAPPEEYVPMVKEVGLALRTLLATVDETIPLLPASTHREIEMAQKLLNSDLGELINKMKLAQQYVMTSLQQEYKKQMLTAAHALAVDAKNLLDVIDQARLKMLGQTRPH
Serine/threonine-protein kinase PAK 3 (Homo sapiens), sequence (O75914 whole entry, looked up): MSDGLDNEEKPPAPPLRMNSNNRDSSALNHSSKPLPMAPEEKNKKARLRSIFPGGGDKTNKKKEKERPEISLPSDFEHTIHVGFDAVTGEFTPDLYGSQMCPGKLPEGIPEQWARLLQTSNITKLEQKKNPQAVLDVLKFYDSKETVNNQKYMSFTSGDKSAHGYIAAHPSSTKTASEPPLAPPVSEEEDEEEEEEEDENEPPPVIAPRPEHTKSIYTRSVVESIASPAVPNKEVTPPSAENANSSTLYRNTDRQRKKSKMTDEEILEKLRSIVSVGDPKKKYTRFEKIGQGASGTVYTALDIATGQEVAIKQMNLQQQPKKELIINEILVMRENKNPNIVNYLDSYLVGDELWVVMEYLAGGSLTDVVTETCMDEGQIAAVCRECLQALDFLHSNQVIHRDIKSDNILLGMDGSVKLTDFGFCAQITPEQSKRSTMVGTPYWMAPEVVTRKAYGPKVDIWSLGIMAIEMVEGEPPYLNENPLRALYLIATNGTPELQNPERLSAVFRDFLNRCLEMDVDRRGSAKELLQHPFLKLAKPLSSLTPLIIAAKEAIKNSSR
Mast/stem cell growth factor receptor Kit (Homo sapiens), sequence (P10721 whole entry): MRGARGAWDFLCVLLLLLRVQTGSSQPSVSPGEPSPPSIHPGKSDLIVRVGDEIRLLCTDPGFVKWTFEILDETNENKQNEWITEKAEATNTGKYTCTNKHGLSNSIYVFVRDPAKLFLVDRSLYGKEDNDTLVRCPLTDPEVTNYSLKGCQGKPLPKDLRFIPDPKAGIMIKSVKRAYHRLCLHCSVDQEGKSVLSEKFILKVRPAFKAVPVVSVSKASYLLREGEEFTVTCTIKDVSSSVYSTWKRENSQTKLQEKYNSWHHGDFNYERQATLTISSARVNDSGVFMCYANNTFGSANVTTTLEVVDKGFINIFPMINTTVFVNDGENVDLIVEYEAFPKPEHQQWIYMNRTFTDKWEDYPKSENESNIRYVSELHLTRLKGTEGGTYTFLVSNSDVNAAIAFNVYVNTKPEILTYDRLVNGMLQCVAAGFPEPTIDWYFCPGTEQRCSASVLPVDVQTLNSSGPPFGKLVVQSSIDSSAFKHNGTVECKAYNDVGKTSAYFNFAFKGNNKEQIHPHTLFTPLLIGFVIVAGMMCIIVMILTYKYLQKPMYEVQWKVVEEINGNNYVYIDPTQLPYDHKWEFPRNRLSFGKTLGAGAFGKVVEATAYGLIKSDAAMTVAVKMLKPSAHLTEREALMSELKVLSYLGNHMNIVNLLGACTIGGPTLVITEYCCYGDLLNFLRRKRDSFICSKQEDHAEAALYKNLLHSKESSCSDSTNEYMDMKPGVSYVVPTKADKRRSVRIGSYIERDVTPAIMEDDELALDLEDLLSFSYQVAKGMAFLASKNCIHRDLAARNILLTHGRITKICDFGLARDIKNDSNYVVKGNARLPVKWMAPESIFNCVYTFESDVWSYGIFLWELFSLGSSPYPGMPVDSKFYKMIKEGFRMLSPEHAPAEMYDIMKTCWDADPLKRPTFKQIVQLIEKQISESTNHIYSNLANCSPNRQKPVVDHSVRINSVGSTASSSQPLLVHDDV
Cyclin-dependent kinase 3 (Homo sapiens), sequence (Q00526 whole entry, looked up): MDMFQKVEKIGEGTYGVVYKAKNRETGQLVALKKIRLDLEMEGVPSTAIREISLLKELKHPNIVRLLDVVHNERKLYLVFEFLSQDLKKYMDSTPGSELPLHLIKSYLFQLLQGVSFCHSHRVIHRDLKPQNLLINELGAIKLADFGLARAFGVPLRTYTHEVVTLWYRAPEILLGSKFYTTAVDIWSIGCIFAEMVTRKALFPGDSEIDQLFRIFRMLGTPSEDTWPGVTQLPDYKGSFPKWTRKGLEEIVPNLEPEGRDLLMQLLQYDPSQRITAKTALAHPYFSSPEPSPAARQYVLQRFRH

Cc1nc(N2CC[C@@H](O)C2)ncc1-c1cc(C(F)(F)F)cc2[nH]ncc12 [TP-004]
residual activity [1]: 100%
residual activity [2]: 100%
inhibition [3]: -6.93%
residual activity [4]: 100%
residual activity [5]: 76%
residual activity [6]: 100%
residual activity [7]: 100%
inhibition [8]: 2.18%
residual activity [9]: 93%
residual activity [10]: 99%
inhibition [11]: 15.7%
residual activity [12]: 71%
residual activity [13]: 100%
residual activity [14]: 100%
residual activity [15]: 100%
inhibition [16]: 11.1%
residual activity [17]: 83%
residual activity [18]: 61%
residual activity [19]: 100%
residual activity [20]: 100%
residual activity [21]: 81%
residual activity [22]: 89%
residual activity [23]: 73%
residual activity [24]: 83%
residual activity [25]: 100%
residual activity [26]: 100%
residual activity [27]: 93%
residual activity [28]: 86%
residual activity [29]: 100%
residual activity [30]: 56%
residual activity [31]: 64%
residual activity [32]: 86%
residual activity [33]: 89%
residual activity [34]: 86%
residual activity [35]: 100%
residual activity [36]: 76%
residual activity [37]: 73%
residual activity [38]: 86%
inhibition [39]: 10.6%
residual activity [40]: 100%
residual activity [41]: 98%
residual activity [42]: 73%
residual activity [43]: 72%
residual activity [44]: 41%
residual activity [45]: 90%
